Key:
[1] = tested on: FoxP3+CD4+CD25+ Treg cells; experiment: FACS quantitation of FoxP3+CD4+CD25+ Treg cells in spleen and lymph node of treated mice; type: in vivo, mouse; details: daily injection at 125 μM for 7 days
Description: FACS quantitation of Mac1^+Gr1^+ Myeloid-Derived Suppressor Cells (Mac1^+Gr1^+ MySC) (A,B) and FoxP3^+CD4^+CD25^+ Treg cells (C,D) in spleen and lymph node of C57BL6 mice treated with NSC13480, vehicle or non-manipulated mice (Normal). ***p<0.001; *p<0.05.
In addition, both donor and host Treg cells can also limit or abrogate GvHD. […] (Paraiso, K. H., et al. 2007. J Immunol 178:2893). […] Adult mice were treated for 7 days with a daily injection of NSC13480 at 125 μM. The frequency of MySC and Treg cells was tested in the spleens of mice treated with NSC13480, the vehicle used for delivery of NSC 13480 and normal, untreated mice.
(§1) Antibody staining and flow cytometry (Examples 1-6): Anti-CD16/32 was co-incubated with the samples to block Fc receptor binding. Antibodies used for staining included: NK1.1 (PK136); CD3e (145-2C11); Ly49G2 (4D11); Gr-1 (RB6-8C5); Mac-1(M1/70); CD11c (HL3); CD4 (GK1.5); CD25 (PC61) and were obtained from BD Pharmingen (San Jose, Calif.). FoxP3 (FJK-16s) was purchased from eBioScience (San Diego, Calif.). All samples were acquired on a FACSCalibur and analyzed using FlowJo8.7.1. For viable staining, dead cells were excluded from the analysis following cytometer acquisition of data by exclusion of the 7AAD dye. […]

NK1.1+CD3- NK cells = experiment: NK cell compartment in spleens of treated mice; type: in vivo, mouse; details: mice treated daily for 6 days, spleen on day 7
Description: Mice were treated daily for 6 days with either NSC13480, vehicle alone (Vehicle) or were non-manipulated (Normal). On the 7th day the spleens of the mice were analyzed for NK cell content (NK1.1+CD3− cells) and for expression of the MHC-I inhibitory receptor Ly49G2.
SHIP-deficiency expands the peripheral NK compartment and disrupts the repertoire of receptors elaborated by NK cells that recognize MHC-I ligands. The NK cell compartment was examined in NSC13480-treated mice to determine if inhibition of SHIP enzymatic activity in vivo could also lead to similar disruptions in the NK cell compartment. […] Ly49G2 is an MHC-I inhibitory receptor shown to be under-represented in SHIP^−/− mice.
as §1

SHIP1 = biological target: T1, SHIP1 (Mus musculus, UniProt Q9ES52); experiment: Malachite Green phosphate release assay, SHIP1; type: biochemical; details: at 1 mM
T1 construct: The asterisk in lanes 1 and 3 indicates the ˜145 kD full-length SHIP protein; His tag (C); made in house; host or cells: E. coli Rosetta-Gami 2 (DE3) pLys
T1 sequence (Q9ES52 1-1191): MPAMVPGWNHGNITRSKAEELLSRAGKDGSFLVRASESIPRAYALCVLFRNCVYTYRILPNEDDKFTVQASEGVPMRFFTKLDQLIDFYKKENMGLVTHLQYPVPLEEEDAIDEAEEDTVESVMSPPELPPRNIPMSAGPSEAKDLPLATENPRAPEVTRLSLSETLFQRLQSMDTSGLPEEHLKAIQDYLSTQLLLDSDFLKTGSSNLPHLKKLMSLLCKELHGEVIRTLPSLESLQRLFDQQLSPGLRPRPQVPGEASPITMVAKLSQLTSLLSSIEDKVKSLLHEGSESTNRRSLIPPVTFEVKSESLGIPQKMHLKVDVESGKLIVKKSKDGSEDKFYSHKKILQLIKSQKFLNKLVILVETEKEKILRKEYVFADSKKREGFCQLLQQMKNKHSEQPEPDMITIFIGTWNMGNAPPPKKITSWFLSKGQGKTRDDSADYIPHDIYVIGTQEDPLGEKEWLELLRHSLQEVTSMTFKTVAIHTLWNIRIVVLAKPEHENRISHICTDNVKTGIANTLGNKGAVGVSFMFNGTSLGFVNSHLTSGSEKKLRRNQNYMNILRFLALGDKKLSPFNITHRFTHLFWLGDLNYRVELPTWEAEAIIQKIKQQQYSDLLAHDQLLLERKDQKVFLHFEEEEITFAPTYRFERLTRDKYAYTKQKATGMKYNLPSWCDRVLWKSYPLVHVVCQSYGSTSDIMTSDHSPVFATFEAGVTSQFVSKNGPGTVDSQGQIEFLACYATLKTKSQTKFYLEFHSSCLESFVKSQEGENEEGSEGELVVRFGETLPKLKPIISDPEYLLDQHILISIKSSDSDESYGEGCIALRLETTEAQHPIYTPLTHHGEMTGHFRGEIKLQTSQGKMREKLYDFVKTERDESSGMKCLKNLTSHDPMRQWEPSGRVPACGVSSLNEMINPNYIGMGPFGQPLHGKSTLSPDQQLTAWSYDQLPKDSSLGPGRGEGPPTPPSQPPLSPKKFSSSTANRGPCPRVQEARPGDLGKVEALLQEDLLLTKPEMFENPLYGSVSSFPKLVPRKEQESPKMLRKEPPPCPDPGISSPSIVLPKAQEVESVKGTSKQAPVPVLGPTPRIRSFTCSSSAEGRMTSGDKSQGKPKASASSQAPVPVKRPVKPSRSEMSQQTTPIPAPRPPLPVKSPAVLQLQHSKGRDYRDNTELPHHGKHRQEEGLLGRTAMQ

[2] = tested on: human multiple myeloma cell lines U266, RPMI8226 and OPM2; experiment: MTT dye assay of multiple myeloma cell lines; type: cell-based; details: increasing concentrations
Source text: (A) SHIP1 expression in human multiple myeloma (MM) cell lines as presented in the western blot analysis. SHIP is expressed in the human multiple myeloma cell lines U266, RPMI8226 and OPM2. The expression in the MM cell lines is shown relative to that observed in MG63 and HS-5 cell lines. MG63 is an osteosarcoma cell line, and HS-5 is a human bone marrow stroma cell line. […] Actin is provided as a control. (B) Results of MTT dye assays of MM cell lines. […] RUO is “relative units optical”. (C) Apoptosis in OPM and RPMI cell lines at increasing concentrations of 3α-aminocholestane.

| SMILES | number of Treg cells ([1]; lymph node) | number of Treg cells ([1]; spleen) | frequency of Ly49G2+ NK cells (NK1.1+CD3- NK cells) | splenic NK cell numbers (NK1.1+CD3- NK cells) | inhibition of SHIP1 (SHIP1) | viability of multiple myeloma cell lines [2] |
| --- | --- | --- | --- | --- | --- | --- |
| OC(c1cc(-c2ccccc2)nc2c1ccc1ccccc12)C1CCCCN1 (stereo not drawn) [NSC13480, (2-phenylbenzo[h]quinolin-4-yl)-piperidin-2-ylmethanol] | increased significantly | increased significantly | much reduced frequency | significant increase | – | – |
| CC(C)CCC[C@@H](C)[C@H]1CC[C@H]2[C@@H]3CC[C@H]4C[C@H](N)CC[C@]4(C)[C@H]3CC[C@]12C [NSC23922, (3R,5S,8R,9S,10S,13R,14S,17R)-10,13-dimethyl-17-[(2R)-6-methylheptan-2-yl]-2,3,4,5,6,7,8,9,11,12,14,15,16,17-tetradecahydro-1H-cyclopenta[a]phenanthren-3-amine] | – | – | – | – | full inhibition | decrease in viability |

Reference: patent US9006221B2, “Method of modulating ship activity” (H. Lee Moffitt Cancer Center and Reserach Institute, Inc., priority 2008, dated 2015)
